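Briefly, cells in 96-well plates were exposed to five compound concentrations for 48 h, and endpoints were estimated by linear interpolation. Abbreviation: GI50, concentration required for 50% inhibition of growth.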 Calls of active or inactive are those of the source. No stated cut-off is given here; in the data, active = GI50 up to about 1.1 µM and inactive = higher.
What was measured:
Experiment in all cases: DTP human tumour cell line panel, 48 h
A498 = test system: A498
HCC 2998 = test system: HCC 2998
HCT-116 = test system: HCT-116
HCT-15 = test system: HCT-15
KM12 = test system: KM12
M14 = test system: M14
MDA-MB-231 = test system: MDA-MB-231
MDA-MB-435 = test system: MDA-MB-435
Malme-3M = test system: Malme-3M
OVCAR-3 = test system: OVCAR-3
OVCAR-5 = test system: OVCAR-5
PC-3 = test system: PC-3
SF-268 = test system: SF-268
SK-MEL-5 = test system: SK-MEL-5
SNB-19 = test system: SNB-19
SNB-75 = test system: SNB-75
U-251 = test system: U-251
UACC-257 = test system: UACC-257
UACC-62 = test system: UACC-62
UO-31 = test system: UO-31

How did the GI50 (A498) turn out when COc1ccc(/C=C2\C(=O)NC(=O)c3ccccc32)cc1OC was run?
Its GI50 is > 66.5 µM (inactive).

What about the GI50 (HCC 2998) of the same compound?
The GI50 was > 46.6 µM (inactive).

And the GI50 (HCT-116)?
Its GI50 is 6.78 µM (inactive).

And the GI50 (HCT-15)?
The GI50 was 20.5 µM.

And the GI50 (KM12)?
Its GI50 is 39.4 µM (inactive).

What about the GI50 (M14) of the same compound?
The GI50 was 57.5 µM (inactive).

And the GI50 (MDA-MB-231)?
Its GI50 is 48.2 µM (inactive).

And the GI50 (MDA-MB-435)?
Its GI50 is 30.1 µM (inactive).

What about the GI50 (Malme-3M) of the same compound?
The GI50 was > 86.9 µM (inactive).

What about the GI50 (OVCAR-3) of the same compound?
Its GI50 is 7.48 µM (inactive).

And the GI50 (OVCAR-5)?
The GI50 was 60.8 µM (inactive).

What about the GI50 (PC-3) of the same compound?
Its GI50 is 45.2 µM (inactive).

And the GI50 (SF-268)?
Its GI50 is 18.2 µM (inactive).

What about the GI50 (SK-MEL-5) of the same compound?
The GI50 was 37.7 µM (inactive).

And the GI50 (SNB-19)?
Its GI50 is 25.5 µM (inactive).

And the GI50 (SNB-75)?
The GI50 was 37.4 µM (inactive).

What about the GI50 (U-251) of the same compound?
Its GI50 is 11.8 µM (inactive).

What about the GI50 (UACC-257) of the same compound?
Its GI50 is > 100 µM (inactive).

And the GI50 (UACC-62)?
Its GI50 is 25.6 µM (inactive).

And the GI50 (UO-31)?
The GI50 was 29.9 µM (inactive).

How did the GI50 (A498) turn out when N#Cc1c(O)c(/N=N/c2ccc(Cl)cc2)c(=O)n2c1[nH]c1ccccc12 was run?
Its GI50 is 37.6 µM (inactive).

And the GI50 (HCC 2998)?
The GI50 was 41.5 µM (inactive).

And the GI50 (HCT-116)?
Its GI50 is 37.9 µM (inactive).

What about the GI50 (HCT-15) of the same compound?
Its GI50 is 28.1 µM.

What about the GI50 (KM12) of the same compound?
Its GI50 is 47 µM (inactive).

And the GI50 (M14)?
The GI50 was 36 µM (inactive).

What about the GI50 (MDA-MB-231) of the same compound?
Its GI50 is 29.3 µM (inactive).

And the GI50 (MDA-MB-435)?
The GI50 was 35.8 µM (inactive).

And the GI50 (Malme-3M)?
Its GI50 is 40.6 µM (inactive).

What about the GI50 (OVCAR-3) of the same compound?
The GI50 was 26.4 µM (inactive).

And the GI50 (OVCAR-5)?
The GI50 was 62.2 µM (inactive).

What about the GI50 (PC-3) of the same compound?
Its GI50 is 36.2 µM (inactive).

What about the GI50 (SF-268) of the same compound?
The GI50 was 45 µM (inactive).

What about the GI50 (SK-MEL-5) of the same compound?
Its GI50 is 53.7 µM (inactive).

And the GI50 (SNB-19)?
The GI50 was 47.3 µM (inactive).

What about the GI50 (SNB-75) of the same compound?
The GI50 was 37.7 µM (inactive).

And the GI50 (U-251)?
Its GI50 is 37.5 µM (inactive).

And the GI50 (UACC-257)?
Its GI50 is 52.1 µM (inactive).

And the GI50 (UACC-62)?
Its GI50 is 29.7 µM (inactive).

What about the GI50 (UO-31) of the same compound?
The GI50 was 49.9 µM (inactive).

For C=CC[C@]1(C2=NC(C)(C)CO2)c2ccccc2-c2ccccc2[C@H]1C(C)=O, which GI50 (A498) is on record?
Its GI50 is 7.67 µM (inactive).

What about the GI50 (HCC 2998) of the same compound?
Its GI50 is 8.11 µM (inactive).

And the GI50 (HCT-116)?
Its GI50 is 5.4 µM (inactive).

And the GI50 (HCT-15)?
The GI50 was 4.82 µM.

And the GI50 (KM12)?
Its GI50 is 5.73 µM (inactive).

And the GI50 (M14)?
The GI50 was 7.76 µM (inactive).

What about the GI50 (MDA-MB-231) of the same compound?
Its GI50 is 14.2 µM (inactive).

And the GI50 (MDA-MB-435)?
The GI50 was 3.64 µM (inactive).

And the GI50 (Malme-3M)?
Its GI50 is 5.57 µM (inactive).

And the GI50 (OVCAR-3)?
Its GI50 is 3.13 µM (inactive).

What about the GI50 (OVCAR-5) of the same compound?
Its GI50 is 19.9 µM (inactive).

What about the GI50 (PC-3) of the same compound?
Its GI50 is 6.41 µM (inactive).

And the GI50 (SF-268)?
The GI50 was 10 µM (inactive).

What about the GI50 (SK-MEL-5) of the same compound?
The GI50 was 3.54 µM (inactive).

What about the GI50 (SNB-19) of the same compound?
Its GI50 is 11.6 µM (inactive).

And the GI50 (SNB-75)?
Its GI50 is 10.9 µM (inactive).

What about the GI50 (U-251) of the same compound?
Its GI50 is 8.15 µM (inactive).

And the GI50 (UACC-257)?
Its GI50 is 6.05 µM (inactive).

What about the GI50 (UACC-62) of the same compound?
Its GI50 is 5.65 µM (inactive).

And the GI50 (UO-31)?
The GI50 was 14.1 µM (inactive).

How did the GI50 (A498) turn out when O=C1/C(=C/c2ccc3c(c2)CCC3)Cc2cc3c(cc21)CCC3 was run?
Its GI50 is > 100 µM (inactive).

What about the GI50 (HCC 2998) of the same compound?
The GI50 was > 100 µM (inactive).

What about the GI50 (HCT-116) of the same compound?
Its GI50 is > 100 µM (inactive).

And the GI50 (HCT-15)?
Its GI50 is over 100 µM.

What about the GI50 (KM12) of the same compound?
Its GI50 is > 100 µM (inactive).

And the GI50 (M14)?
Its GI50 is > 100 µM (inactive).

What about the GI50 (MDA-MB-231) of the same compound?
The GI50 was 76.9 µM (inactive).

What about the GI50 (MDA-MB-435) of the same compound?
The GI50 was > 100 µM (inactive).

And the GI50 (Malme-3M)?
Its GI50 is > 100 µM (inactive).

And the GI50 (OVCAR-3)?
The GI50 was > 100 µM (inactive).

And the GI50 (OVCAR-5)?
The GI50 was > 100 µM (inactive).

And the GI50 (PC-3)?
The GI50 was > 100 µM (inactive).

What about the GI50 (SF-268) of the same compound?
Its GI50 is > 100 µM (inactive).

And the GI50 (SK-MEL-5)?
The GI50 was > 100 µM (inactive).

And the GI50 (SNB-19)?
Its GI50 is 61.9 µM (inactive).

What about the GI50 (SNB-75) of the same compound?
The GI50 was 26.2 µM (inactive).

And the GI50 (U-251)?
Its GI50 is > 100 µM (inactive).

What about the GI50 (UACC-257) of the same compound?
Its GI50 is > 100 µM (inactive).

What about the GI50 (UACC-62) of the same compound?
Its GI50 is > 100 µM (inactive).

And the GI50 (UO-31)?
The GI50 was > 100 µM (inactive).

Oc1ccccc1C(Sc1nc2ccccc2s1)Sc1nc2ccccc2s1 was tested. Which GI50 (A498) did it give?
Its GI50 is > 100 µM (inactive).

What about the GI50 (HCC 2998) of the same compound?
Its GI50 is > 100 µM (inactive).

What about the GI50 (HCT-116) of the same compound?
Its GI50 is > 100 µM (inactive).

What about the GI50 (HCT-15) of the same compound?
The GI50 was 51.3 µM.

What about the GI50 (KM12) of the same compound?
Its GI50 is 89.1 µM (inactive).

And the GI50 (M14)?
Its GI50 is > 100 µM (inactive).

And the GI50 (MDA-MB-231)?
The GI50 was > 100 µM (inactive).

And the GI50 (MDA-MB-435)?
The GI50 was 73.5 µM (inactive).

And the GI50 (Malme-3M)?
Its GI50 is 28.4 µM (inactive).

And the GI50 (OVCAR-3)?
The GI50 was 31.3 µM (inactive).

And the GI50 (OVCAR-5)?
Its GI50 is > 100 µM (inactive).

What about the GI50 (PC-3) of the same compound?
Its GI50 is 67.1 µM (inactive).

And the GI50 (SF-268)?
Its GI50 is 71.6 µM (inactive).

What about the GI50 (SK-MEL-5) of the same compound?
Its GI50 is 44 µM (inactive).

What about the GI50 (SNB-19) of the same compound?
Its GI50 is 64.6 µM (inactive).

And the GI50 (SNB-75)?
Its GI50 is > 100 µM (inactive).

And the GI50 (U-251)?
The GI50 was 57.7 µM (inactive).

And the GI50 (UACC-257)?
The GI50 was > 100 µM (inactive).

And the GI50 (UACC-62)?
The GI50 was 69.2 µM (inactive).

And the GI50 (UO-31)?
The GI50 was 6.55 µM (inactive).

Reference: ChEMBL document CHEMBL1201862, “PubChem BioAssay data set” (2004)
